We go through 16 compounds from patent US6960597B2, “Aza-bridged-bicyclic amino acid derivatives as α4 integrin antagonists” (Orth-McNeil Pharmaceutical, Inc., priority 2000, dated 2005).

Read-outs that look alike come from different tables or passages of the source.

The target in one test is T1, α4β1 integrin receptor (Homo sapiens, UniProt P05556+P13612).
T1 construct: Ramos Cell Adhesion Assay (α4β1 Mediated Adhesion/VCAM-1); endogenous in cells; host or cells: Ramos cells
In words: Ramos Cell Adhesion Assay (α4β1 Mediated Adhesion/VCAM-1). It is filed as cell-based. A digest of the protocol:
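Plates coated overnight at 4° C with recombinant hVCAM-1 (4.0 μg/mL, pH 9.0), then blocked with PBS/1% BSA. Ramos cells labelled with 5 μM Calcein AM adhered 1 h at room temperature with compound; after washing, cells were lysed in SDS and fluorescence read at 485/530 nm.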

In a further test the target is T2, human α4β7 (Homo sapiens, UniProt P13612+P26010).
T2 construct: expressed in transfected cells
T2 sequence (P13612 34-1032): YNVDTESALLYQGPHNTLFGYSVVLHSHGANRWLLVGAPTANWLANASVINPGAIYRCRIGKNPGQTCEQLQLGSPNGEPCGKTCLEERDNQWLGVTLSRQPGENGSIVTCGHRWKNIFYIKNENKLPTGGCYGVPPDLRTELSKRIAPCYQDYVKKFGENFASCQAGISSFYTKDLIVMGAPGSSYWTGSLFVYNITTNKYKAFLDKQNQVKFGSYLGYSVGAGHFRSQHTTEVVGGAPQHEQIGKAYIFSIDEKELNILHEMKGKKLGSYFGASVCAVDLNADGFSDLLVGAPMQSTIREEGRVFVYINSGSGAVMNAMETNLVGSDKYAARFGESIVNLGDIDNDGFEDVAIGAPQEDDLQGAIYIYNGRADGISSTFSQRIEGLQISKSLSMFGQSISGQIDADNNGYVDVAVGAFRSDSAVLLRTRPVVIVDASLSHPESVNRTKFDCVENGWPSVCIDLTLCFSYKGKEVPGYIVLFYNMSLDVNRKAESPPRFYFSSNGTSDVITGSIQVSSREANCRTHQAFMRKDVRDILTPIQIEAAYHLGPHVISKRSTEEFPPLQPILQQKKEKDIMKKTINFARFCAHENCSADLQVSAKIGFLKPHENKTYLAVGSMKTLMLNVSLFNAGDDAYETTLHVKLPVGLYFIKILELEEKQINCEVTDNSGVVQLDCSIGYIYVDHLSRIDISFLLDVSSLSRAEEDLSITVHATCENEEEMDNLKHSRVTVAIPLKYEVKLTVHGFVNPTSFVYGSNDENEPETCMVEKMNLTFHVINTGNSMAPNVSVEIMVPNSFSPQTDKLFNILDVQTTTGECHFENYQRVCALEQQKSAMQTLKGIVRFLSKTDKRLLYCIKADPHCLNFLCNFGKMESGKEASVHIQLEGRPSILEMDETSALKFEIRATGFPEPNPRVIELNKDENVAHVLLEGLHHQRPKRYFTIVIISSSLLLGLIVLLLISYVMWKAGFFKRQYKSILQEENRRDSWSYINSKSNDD
T2 sequence (P26010 20-798): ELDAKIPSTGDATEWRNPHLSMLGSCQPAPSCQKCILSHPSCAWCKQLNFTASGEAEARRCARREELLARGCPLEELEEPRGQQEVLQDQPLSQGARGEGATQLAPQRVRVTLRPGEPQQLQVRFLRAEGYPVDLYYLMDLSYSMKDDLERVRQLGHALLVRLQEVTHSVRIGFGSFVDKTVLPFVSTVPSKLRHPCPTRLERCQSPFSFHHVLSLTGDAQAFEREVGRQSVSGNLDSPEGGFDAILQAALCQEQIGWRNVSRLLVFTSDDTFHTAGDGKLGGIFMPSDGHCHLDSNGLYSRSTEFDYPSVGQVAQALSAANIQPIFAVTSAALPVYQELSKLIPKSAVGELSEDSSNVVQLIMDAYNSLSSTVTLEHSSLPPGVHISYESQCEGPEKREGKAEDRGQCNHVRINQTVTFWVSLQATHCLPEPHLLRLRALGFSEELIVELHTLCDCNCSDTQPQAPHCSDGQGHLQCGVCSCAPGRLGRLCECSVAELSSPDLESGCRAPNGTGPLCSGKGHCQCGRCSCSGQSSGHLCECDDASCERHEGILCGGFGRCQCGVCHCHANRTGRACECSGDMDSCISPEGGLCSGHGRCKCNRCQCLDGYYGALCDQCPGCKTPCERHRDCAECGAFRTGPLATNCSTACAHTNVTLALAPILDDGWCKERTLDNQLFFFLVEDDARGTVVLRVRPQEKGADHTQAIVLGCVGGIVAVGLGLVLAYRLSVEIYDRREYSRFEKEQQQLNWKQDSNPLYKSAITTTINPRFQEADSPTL
In words: α4β7-K562 Cell Adhesion Assay (α4β7 Mediated Adhesion/VCAM-1). It is filed as cell-based. In a few lines:
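K562 cells stably expressing human α4β7, labelled with 5 μM Calcein AM, adhered for 1 h at room temperature to plates coated with recombinant hVCAM-1 (4.0 μg/mL) in the presence of compound. After washing, cells were lysed in Tris/SDS. Bound cells were read by fluorescence at 485/530 nm.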

[1] abbreviates: Inhibition of Binding of Ramos Cells to Immobilized VCAM-1 IC50, Table III.
Where [2] appears, read: Table III, read-out: Inhibition of Binding of Ramos Cells to Immobilized VCAM-1 IC50.
Setting [3] is: Table IV, read-out: Inhibition of Binding of K562 Cells to Immobilized VCAM-1 IC50.
The mark [4] stands for this setting: Table IV, μM, read-out: Inhibition of Binding of K562 Cells to Immobilized VCAM-1 IC50.
The mark [5] stands for this setting: Table III, μM, read-out: Inhibition of Binding of Ramos Cells to Immobilized VCAM-1 IC50.

T1 sequence (P05556 21-798, one chain of several): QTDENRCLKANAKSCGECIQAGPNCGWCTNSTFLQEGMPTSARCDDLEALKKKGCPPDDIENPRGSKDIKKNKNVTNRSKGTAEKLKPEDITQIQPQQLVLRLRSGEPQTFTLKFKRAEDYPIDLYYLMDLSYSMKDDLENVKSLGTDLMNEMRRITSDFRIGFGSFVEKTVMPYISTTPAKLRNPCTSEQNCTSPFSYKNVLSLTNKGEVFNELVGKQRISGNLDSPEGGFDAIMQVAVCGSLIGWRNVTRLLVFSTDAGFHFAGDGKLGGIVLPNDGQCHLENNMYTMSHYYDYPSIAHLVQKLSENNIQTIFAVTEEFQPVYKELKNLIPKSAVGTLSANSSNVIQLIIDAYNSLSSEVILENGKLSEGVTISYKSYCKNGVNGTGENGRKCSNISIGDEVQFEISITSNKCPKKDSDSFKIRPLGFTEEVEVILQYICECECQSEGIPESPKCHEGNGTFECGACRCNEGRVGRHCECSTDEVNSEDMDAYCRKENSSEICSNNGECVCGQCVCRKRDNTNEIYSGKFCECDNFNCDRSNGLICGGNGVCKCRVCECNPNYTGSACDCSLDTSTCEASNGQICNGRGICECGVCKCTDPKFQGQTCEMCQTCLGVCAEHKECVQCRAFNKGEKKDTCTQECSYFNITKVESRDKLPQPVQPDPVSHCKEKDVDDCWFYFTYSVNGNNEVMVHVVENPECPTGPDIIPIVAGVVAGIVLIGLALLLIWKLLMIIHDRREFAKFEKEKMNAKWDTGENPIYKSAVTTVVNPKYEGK

For orientation: IC50 means the midpoint of a concentration-inhibition curve. `CN(C)C(=O)Oc1ccc(C[C@H](NC(=O)[C@@H]2C3CCC(CC3)N2S(=O)(=O)c2ccccc2)C(=O)O)cc1` [Cpd 52a, O-[(dimethylamino)carbonyl]-N-[[(3S)-2-(phenylsulfonyl)-2-azabicyclo[2.2.2]oct-3-yl]carbonyl]-L-tyrosine]: the IC50 on α4β1 integrin receptor (Antagonist IC50 Activity α4β1, Table I, racemic mixtures and resolved (S,S) and (R,S) diastereomers) is 0.045 µM; at α4β1 integrin receptor (setting [1]), 0.04 µM; on human α4β7, 0.436 µM; at human α4β7 (read-out: Inhibition of Binding of K562 Cells to Immobilized VCAM-1 IC50, Table IV), 0.436 µM.

Turning to `CC(C)(C)OC(=O)N1CCC(C(=O)Nc2ccc(C[C@H](NC(=O)[C@@H]3C4CCC(CC4)N3S(=O)(=O)c3ccccc3)C(=O)O)cc2)CC1` [Cpd 53a, 4-[[[1-[(1,1-dimethylethoxy)carbonyl]-4-piperidinyl]carbonyl]amino]-N-[[(3S)-2-(phenylsulfonyl)-2-azabicyclo[2.2.2]oct-3-yl]carbonyl]-L-phenylalanine], the IC50 on α4β1 integrin receptor (Table I, racemic mixtures and resolved (S,S) and (R,S) diastereomers, read-out: Antagonist IC50 Activity α4β1) was 0.219 µM; on α4β1 integrin receptor (setting [2]), 0.219 µM; on human α4β7 (Table I, racemic mixtures and resolved (S,S) and (R,S) diastereomers, read-out: Antagonist IC50 Activity α4β7) it was 0.693 µM.

With `O=C(Nc1ccc(C[C@H](NC(=O)C2C3CCC(CC3)N2S(=O)(=O)c2ccc(F)cc2)C(=O)O)cc1)c1c(Cl)cccc1Cl` (stereo partly drawn) [Cpd 54, 4-[(2,6-dichlorobenzoyl)amino]-N-[[2-[(4-fluorophenyl)sulfonyl]-2-azabicyclo[2.2.2]oct-3-yl]carbonyl]-L-phenylalanine], the figures for the IC50 on α4β1 integrin receptor (setting [2]) and at human α4β7 (setting [3]) were 0.146 µM and 0.118 µM, respectively.

As for `COc1cccc(OC)c1C(=O)Nc1ccc(C[C@H](NC(=O)C2C3CCC(CC3)N2S(=O)(=O)c2ccc(F)cc2)C(=O)O)cc1` (stereo partly drawn) [Cpd 55, 4-[(2,6-dimethoxybenzoyl)amino]-N-[[2-[(4-fluorophenyl)sulfonyl]-2-azabicyclo[2.2.2]oct-3-yl]carbonyl]-L-phenylalanine], the IC50 at α4β1 integrin receptor (setting [2]) is 0.303 µM; at human α4β7 (setting [3]), 0.091 µM.

Take `O=C(N[C@@H](Cc1ccc(OC(=O)N2CCOCC2)cc1)C(=O)O)C1C2CCC(CC2)N1S(=O)(=O)c1ccccc1` (stereo partly drawn) [Cpd 56, O-(4-morpholinylcarbonyl)-N-[[2-(phenylsulfonyl)-2-azabicyclo[2.2.2]oct-3-yl]carbonyl]-L-tyrosine]: the IC50 on α4β1 integrin receptor (setting [2]) was 0.139 µM; at human α4β7 (setting [3]), 0.047 µM.

As for `CC(C)N(C(=O)Oc1ccc(C[C@H](NC(=O)C2C3CCC(CC3)N2S(=O)(=O)c2ccccc2)C(=O)O)cc1)C(C)C` (stereo partly drawn) [Cpd 57, O-[[bis(1-methylethyl)amino]carbonyl]-N-[[2-(phenylsulfonyl)-2-azabicyclo[2.2.2]oct-3-yl]carbonyl]-L-tyrosine], the IC50 was 0.757 µM on α4β1 integrin receptor (setting [2]) and above 5 µM on human α4β7 (setting [4]).

As to `CC(C)(C)c1ccc(C[C@H](NC(=O)C2C3CCC(CC3)N2S(=O)(=O)c2ccccc2)C(=O)O)cc1` (stereo partly drawn) [Cpd 58, 4-(1,1-dimethylethyl)-N-[[2-(phenylsulfonyl)-2-azabicyclo[2.2.2]oct-3-yl]carbonyl]-L-phenylalanine], the 50% inhibitory concentration (IC50) was 0.523 µM on α4β1 integrin receptor (setting [2]) and above 10 µM at human α4β7 (setting [4]).

Take `O=C(Nc1ccc(C[C@H](NC(=O)C2C3CCC(CC3)N2S(=O)(=O)c2ccccc2)C(=O)O)cc1)C1CCNCC1` (stereo partly drawn) [Cpd 59, 4-[(4-piperidinylcarbonyl)amino]-N-[[2-(phenylsulfonyl)-2-azabicyclo[2.2.2]oct-3-yl]carbonyl]-L-phenylalanine]: the half-maximal inhibitory concentration (IC50) was 0.237 µM on α4β1 integrin receptor (setting [2]) and 1.5 µM at human α4β7 (setting [3]).

As to `O=C(O)C(Cc1ccc(OCc2c(Cl)cccc2Cl)c(F)c1)NC(=O)C1C2CCC(CC2)N1S(=O)(=O)c1ccccc1` (centres unmarked) [Cpd 62], the figures for the IC50 on α4β1 integrin receptor (setting [5]) and on human α4β7 (setting [4]) were above 5 µM and above 10 µM, respectively.

For the compound `O=C(O)[C@H](Cc1ccc(OCc2c(Cl)cccc2Cl)c(F)c1)NC(=O)[C@@H]1C2CCC(CC2)N1S(=O)(=O)c1ccccc1` [Cpd 62a, O-[(2,6-dichlorophenyl)methyl]-3-fluoro-N-[[(3S)-2-(phenylsulfonyl)-2-azabicyclo[2.2.2]oct-3-yl]carbonyl]-L-tyrosine], the half-maximal inhibitory concentration (IC50) on α4β1 integrin receptor (setting [5]) is above 5 µM; at human α4β7 (setting [4]) it was above 10 µM.

Take `CN(C)C(=O)Oc1ccc(C[C@H](NC(=O)C2C3CCC(CC3)N2S(=O)(=O)c2cccs2)C(=O)O)cc1` (stereo partly drawn) [Cpd 63, O-[(dimethylamino)carbonyl]-N-[[2-(2-thienylsulfonyl)-2-azabicyclo[2.2.2]oct-3-yl]carbonyl]-L-tyrosine]: the half-inhibitory concentration (IC50) at α4β1 integrin receptor (setting [1]) came out at 0.112 µM; on human α4β7, 0.286 µM.

Regarding `CC(C)(C)C(=O)Nc1ccc(C[C@H](NC(=O)[C@@H]2C3CCC(CC3)N2S(=O)(=O)c2ccccc2)C(=O)O)cc1` [Cpd 64, 4-[(2,2-dimethyl-1-oxopropyl)amino]-N-[[(3S)-2-(phenylsulfonyl)-2-azabicyclo[2.2.2]oct-3-yl]carbonyl]-L-phenylalanine], the IC50 was 0.393 µM on α4β1 integrin receptor (setting [2]) and above 10 µM at human α4β7 (setting [4]).

As to `CCOc1ccc2ccccc2c1C(=O)Nc1ccc(C[C@H](NC(=O)[C@@H]2C3CCC(CC3)N2S(=O)(=O)c2ccccc2)C(=O)O)cc1` [Cpd 65, 4-[[(2-ethoxy-1-naphthalenyl)carbonyl]amino]-N-[[(3S)-2-(phenylsulfonyl)-2-azabicyclo[2.2.2]oct-3-yl]carbonyl]-L-phenylalanine], the IC50 worked out at 0.193 µM on α4β1 integrin receptor (setting [2]) and 0.394 µM on human α4β7 (setting [3]).

In the case of `O=C(Nc1ccc(C[C@H](NC(=O)C2C3CCC(CC3)N2S(=O)(=O)c2cccs2)C(=O)O)cc1)c1c(Cl)cccc1Cl` (stereo partly drawn) [Cpd 66, 4-[(2,6-dichlorobenzoyl)amino]-N-[[2-(2-thienylsulfonyl)-2-azabicyclo[2.2.2]oct-3-yl]carbonyl]-L-phenylalanine], the results for the IC50 at α4β1 integrin receptor (setting [2]) and at human α4β7 (setting [3]) were 0.017 µM and 0.186 µM, respectively.

Consider `O=C(Nc1ccc(C[C@H](NC(=O)[C@@H]2C3CCC(CC3)N2S(=O)(=O)c2ccccc2)C(=O)O)cc1)C1CC1` [Cpd 67, 4-[(cyclopropylcarbonyl)amino]-N-[[(3S)-2-(phenylsulfonyl)-2-azabicyclo[2.2.2]oct-3-yl]carbonyl]-L-phenylalanine], for which the IC50 on α4β1 integrin receptor (setting [2]) came out at 0.628 µM; at human α4β7 (setting [3]), 0.683 µM.

For `CC1(C)C(C(=O)Nc2ccc(C[C@H](NC(=O)[C@@H]3C4CCC(CC4)N3S(=O)(=O)c3ccccc3)C(=O)O)cc2)C1(C)C` [Cpd 68, 4-[[(2,2,3,3-tetramethylcyclopropyl)carbonyl]amino]-N-[[(3S)-2-(phenylsulfonyl)-2-azabicyclo[2.2.2]oct-3-yl]carbonyl]-L-phenylalanine], the values for the half-maximal inhibitory concentration (IC50) at α4β1 integrin receptor (setting [2]) and at human α4β7 (setting [4]) were 0.873 µM and above 50 µM, respectively.
